# “And” between values parts separate entries of the source, which are not always exact repeats. Identical values can stand only once. Marks after values point to notes of the source that are not given here.
# Tests used:
# [1] = pH of the saturated aqueous solutions; assay type: physicochemical; conditions: saturated aqueous solution of the solubility experiment
# Summary of the method: (§1)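 Excess solid stirred in water in triplicate, settled 2 h; pH of the saturated solution measured, then filtered (0.22 μm), diluted and quantified by UV absorbance against calibration curves at 298.15 K. Residual solids examined by DSC and XRD for phase changes.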
# [2] = Gibbs energy of hydration and Henry's law volatility constant calculated from sublimation and solubility data; conditions: 25 °C; for Gibbs energy of hydration ΔhydrGm°: calculated by Equation (4); for log10(KHpc/kPa·m^3·mol^−1) Henry's law volatility constant: calculated by Equation (6); for KHpc×10^3 Henry's law volatility constant: value is KHpc multiplied by 10^3
# Summary of the method: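 Aqueous solubility of each purified compound measured by UV absorbance (260–306 nm by compound); residual solids checked by DSC and XRD for phase change. ΔhydrGm° derived from solubility and sublimation Gibbs energy (Eq. 4; standard states p° = 1 × 10^5 Pa, c° = 1 mol·L^−1), then converted to Henry's law volatility constants (log form).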
# [3] = Equilibrium solubility in water, saturation shake-flask method with UV-vis; conditions: 25 °C, thermodynamic from solid
# Summary of the method: as §1
# [4] = Vapor pressures of crystalline and liquid phases, static method with capacitance diaphragm gauge; assay type: physicochemical
# Summary of the method: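 Static method with capacitance diaphragm gauge (range 0.5 to 1.3 × 10^3 Pa, gauge at 473 K) on degassed crystalline and liquid samples; sample temperature by calibrated Pt100, u(T/K) = ±0.01. Connecting tubing held between sample and gauge temperatures; U(p/Pa) = 0.1 + 0.0050 (p/Pa) at k = 2.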
compound,measurement,setting,value
O=Cc1ccc(Br)cc1 [4-Bromobenzaldehyde],pH of the saturated solution,[1],6.82
same,Gibbs energy of hydration ΔhydrGm°,[2],-4.49 kcal/mol
same,log10(KHpc/kPa·m^3·mol^−1) Henry's law volatility constant,[2],−2.90
same,KHpc×10^3 Henry's law volatility constant,[2],1.26 kPa·m^3·mol^−1
same,solubility at 72 h,[3],3.71 mM
same,vapor pressure p,"[4]; crystalline phase, T = 283.09 K",0.83 Pa
same,vapor pressure p,"[4]; crystalline phase, T = 285.23 K",1.07 Pa
same,vapor pressure p,"[4]; crystalline phase, T = 287.05 K",1.33 Pa
same,vapor pressure p,"[4]; crystalline phase, T = 289.17 K",1.71 Pa
same,vapor pressure p,"[4]; crystalline phase, T = 291.17 K",2.13 Pa
same,vapor pressure p,"[4]; crystalline phase, T = 292.95 K",2.63 Pa
same,vapor pressure p,"[4]; crystalline phase, T = 295.00 K",3.25 Pa
same,vapor pressure p,"[4]; crystalline phase, T = 297.08 K",4.12 Pa
same,vapor pressure p,"[4]; crystalline phase, T = 298.95 K",4.98 Pa
same,vapor pressure p,"[4]; crystalline phase, T = 301.06 K",6.27 Pa
same,vapor pressure p,"[4]; crystalline phase, T = 302.93 K",7.60 Pa
same,vapor pressure p,"[4]; crystalline phase, T = 304.86 K",9.21 Pa
same,vapor pressure p,"[4]; crystalline phase, T = 306.87 K",11.43 Pa
same,vapor pressure p,"[4]; crystalline phase, T = 308.76 K",13.82 Pa
same,vapor pressure p,"[4]; crystalline phase, T = 310.84 K",17.02 Pa
same,vapor pressure p,"[4]; crystalline phase, T = 312.78 K",20.28 Pa
same,vapor pressure p,"[4]; crystalline phase, T = 314.77 K",24.88 Pa
same,vapor pressure p,"[4]; crystalline phase, T = 316.79 K",29.92 Pa
same,vapor pressure p,"[4]; crystalline phase, T = 318.78 K",36.33 Pa
same,vapor pressure p,"[4]; crystalline phase, T = 320.66 K",43.34 Pa
same,vapor pressure p,"[4]; crystalline phase, T = 322.62 K",51.66 Pa
same,vapor pressure p,"[4]; crystalline phase, T = 324.68 K",61.49 Pa
same,vapor pressure p,"[4]; liquid phase, T = 330.60 K",103.9 Pa
same,vapor pressure p,"[4]; liquid phase, T = 332.51 K",117.8 Pa
same,vapor pressure p,"[4]; liquid phase, T = 334.45 K",131.9 Pa
same,vapor pressure p,"[4]; liquid phase, T = 336.48 K",148.9 Pa
same,vapor pressure p,"[4]; liquid phase, T = 338.43 K",168.4 Pa
same,vapor pressure p,"[4]; liquid phase, T = 340.46 K",189.9 Pa
same,vapor pressure p,"[4]; liquid phase, T = 342.44 K",213.5 Pa
same,vapor pressure p,"[4]; liquid phase, T = 344.41 K",240.4 Pa
same,vapor pressure p,"[4]; liquid phase, T = 346.34 K",266.7 Pa
same,vapor pressure p,"[4]; liquid phase, T = 348.34 K",300.1 Pa
same,vapor pressure p,"[4]; liquid phase, T = 350.32 K",333.2 Pa
same,vapor pressure p,"[4]; liquid phase, T = 352.34 K",375.3 Pa
same,vapor pressure p,"[4]; liquid phase, T = 354.27 K",418.5 Pa
same,vapor pressure p,"[4]; liquid phase, T = 356.26 K",463.6 Pa
same,vapor pressure p,"[4]; liquid phase, T = 358.21 K",513.4 Pa
same,vapor pressure p,"[4]; liquid phase, T = 360.13 K",573.1 Pa
same,vapor pressure p,"[4]; liquid phase, T = 362.14 K",628.6 Pa
same,vapor pressure p,"[4]; liquid phase, T = 364.12 K",701.8 Pa
same,vapor pressure p,"[4]; liquid phase, T = 366.10 K",775.8 Pa
same,vapor pressure p,"[4]; liquid phase, T = 368.08 K",860.4 Pa
same,vapor pressure p,"[4]; liquid phase, T = 370.05 K",946.6 Pa
same,vapor pressure p,"[4]; liquid phase, T = 371.99 K",1026 Pa
same,vapor pressure p,"[4]; liquid phase, T = 373.98 K",1147 Pa
same,vapor pressure p,"[4]; supercooled liquid, T = 316.76 K",39.76 ^d Pa
same,vapor pressure p,"[4]; supercooled liquid, T = 318.77 K",46.26 ^d Pa
same,vapor pressure p,"[4]; supercooled liquid, T = 320.73 K",53.22 ^d Pa
same,vapor pressure p,"[4]; supercooled liquid, T = 322.70 K",60.73 ^d Pa
same,vapor pressure p,"[4]; supercooled liquid, T = 324.68 K",69.79 ^d Pa
same,vapor pressure p,"[4]; supercooled liquid, T = 326.64 K",79.36 ^d Pa
same,vapor pressure p,"[4]; supercooled liquid, T = 328.63 K",90.64 ^d Pa
O=Cc1ccc(Cl)cc1 [4-Chlorobenzaldehyde],pH of the saturated solution,[1],6.61
same,Gibbs energy of hydration ΔhydrGm°,[2],-4.23 kcal/mol
same,log10(KHpc/kPa·m^3·mol^−1) Henry's law volatility constant,[2],−2.71
same,KHpc×10^3 Henry's law volatility constant,[2],1.95 kPa·m^3·mol^−1
same,solubility at 72 h,[3],8.83 mM
same,vapor pressure p,"[4]; crystalline phase, T = 267.45 K",0.57 Pa
same,vapor pressure p,"[4]; crystalline phase, T = 269.33 K",0.72 Pa
same,vapor pressure p,"[4]; crystalline phase, T = 271.42 K",0.93 Pa
same,vapor pressure p,"[4]; crystalline phase, T = 273.29 K",1.15 Pa
same,vapor pressure p,"[4]; crystalline phase, T = 275.39 K",1.48 Pa
same,vapor pressure p,"[4]; crystalline phase, T = 277.25 K",1.84 Pa
same,vapor pressure p,"[4]; crystalline phase, T = 279.32 K",2.33 Pa
same,vapor pressure p,"[4]; crystalline phase, T = 281.20 K",2.90 Pa
same,vapor pressure p,"[4]; crystalline phase, T = 283.26 K",3.60 Pa
same,vapor pressure p,"[4]; crystalline phase, T = 285.16 K",4.49 Pa
same,vapor pressure p,"[4]; crystalline phase, T = 287.22 K",5.65 Pa
same,vapor pressure p,"[4]; crystalline phase, T = 289.23 K",6.93 Pa
same,vapor pressure p,"[4]; crystalline phase, T = 291.18 K",8.49 Pa
same,vapor pressure p,"[4]; crystalline phase, T = 293.07 K",10.45 Pa
same,vapor pressure p,"[4]; crystalline phase, T = 295.14 K",12.75 Pa
same,vapor pressure p,"[4]; crystalline phase, T = 297.14 K",15.67 Pa
same,vapor pressure p,"[4]; crystalline phase, T = 299.12 K",19.07 Pa
same,vapor pressure p,"[4]; crystalline phase, T = 300.99 K",23.01 Pa
same,vapor pressure p,"[4]; crystalline phase, T = 303.05 K",28.05 Pa
same,vapor pressure p,"[4]; crystalline phase, T = 305.04 K",34.26 Pa
same,vapor pressure p,"[4]; crystalline phase, T = 306.98 K",40.71 Pa
same,vapor pressure p,"[4]; crystalline phase, T = 309.01 K",49.06 Pa
same,vapor pressure p,"[4]; crystalline phase, T = 310.96 K",58.06 Pa
same,vapor pressure p,"[4]; crystalline phase, T = 312.92 K",69.28 Pa
same,vapor pressure p,"[4]; crystalline phase, T = 314.91 K",82.74 Pa
same,vapor pressure p,"[4]; liquid phase, T = 319.87 K",125.4 Pa
same,vapor pressure p,"[4]; liquid phase, T = 321.85 K",143.8 Pa
same,vapor pressure p,"[4]; liquid phase, T = 323.75 K",162.2 Pa
same,vapor pressure p,"[4]; liquid phase, T = 325.71 K",183.0 Pa
same,vapor pressure p,"[4]; liquid phase, T = 327.66 K",206.8 Pa
same,vapor pressure p,"[4]; liquid phase, T = 329.70 K",235.5 Pa
same,vapor pressure p,"[4]; liquid phase, T = 331.69 K",264.4 Pa
same,vapor pressure p,"[4]; liquid phase, T = 333.66 K",298.2 Pa
same,vapor pressure p,"[4]; liquid phase, T = 335.64 K",336.0 Pa
same,vapor pressure p,"[4]; liquid phase, T = 337.61 K",375.5 Pa
same,vapor pressure p,"[4]; liquid phase, T = 339.57 K",415.3 Pa and 416.0 Pa
same,vapor pressure p,"[4]; liquid phase, T = 341.56 K",468.0 Pa
same,vapor pressure p,"[4]; liquid phase, T = 343.52 K",520.0 Pa
same,vapor pressure p,"[4]; liquid phase, T = 345.50 K",578.0 Pa
same,vapor pressure p,"[4]; liquid phase, T = 347.47 K",640.9 Pa
same,vapor pressure p,"[4]; liquid phase, T = 347.50 K",641.0 Pa
same,vapor pressure p,"[4]; liquid phase, T = 349.45 K",711.8 Pa
same,vapor pressure p,"[4]; liquid phase, T = 351.43 K",788.7 Pa
same,vapor pressure p,"[4]; liquid phase, T = 353.30 K",864.6 Pa
same,vapor pressure p,"[4]; liquid phase, T = 355.30 K",958.0 Pa
same,vapor pressure p,"[4]; liquid phase, T = 357.33 K",1058 Pa
same,vapor pressure p,"[4]; supercooled liquid, T = 305.70 K",48.17 ^d Pa
same,vapor pressure p,"[4]; supercooled liquid, T = 307.91 K",56.22 ^d Pa
same,vapor pressure p,"[4]; supercooled liquid, T = 309.86 K",65.09 ^d Pa
same,vapor pressure p,"[4]; supercooled liquid, T = 311.92 K",75.03 ^d Pa
same,vapor pressure p,"[4]; supercooled liquid, T = 313.90 K",86.06 ^d Pa
same,vapor pressure p,"[4]; supercooled liquid, T = 315.83 K",96.33 ^d Pa
same,vapor pressure p,"[4]; supercooled liquid, T = 317.92 K",110.0 ^d Pa
